Test results published in ChEMBL document CHEMBL1148048, “Two new tryptophan-derived alkaloids from the Okinawan marine sponge Aplysina sp” (J Nat Prod, 1994).
In brackets after ≈: the same amount, converted by molar mass.

Tests used:
L1210 = experiment: Cytotoxicity against mouse L1210 cells; assay type: functional, cell-based
KB [1] = experiment: Cytotoxicity against human KB cells; assay type: functional, cell-based
KB [2] = experiment: Cytotoxicity against human KB cells at 20 ug/ml; assay type: functional

| SMILES | IC50 (L1210) | IC50 (KB [1]) | inhibition at 20 µg/mL (KB [2]) |
| --- | --- | --- | --- |
| CN1C(=N)N(C)/C(=C/c2c[nH]c3ccccc23)C1=O [APLYSINOPSIN] | 2.3 µg/mL (≈ 9.04 µM) | 6.4 µg/mL (≈ 25.2 µM) |  |
| C/N=C1\NC(=O)/C(=C\c2c[nH]c3ccccc23)N1C [ISOPLYSIN A] | 11.5 µg/mL (≈ 45.2 µM) |  | 31% |
| C/N=C1\N(C)C(=O)/C(=C\c2c[nH]c3ccccc23)N1C [METHYLAPLYSINOPSIN] | 3.5 µg/mL (≈ 13 µM) | 6.7 µg/mL (≈ 25 µM) |  |
